Like-named read-outs stand apart in the source and are kept apart here.

Assay [1] deals with Tlp4 (Campylobacter jejuni, UniProt Q0PBP3). Put plainly: biochemical. In kind it is binding. The method, boiled down: (§1)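 Recombinant His-tagged periplasmic sensory domains (Tlp2 aa 33–286, Tlp4 aa 38–297) from E. coli BL21(DE3) were amine-coupled to a CM5 chip. Ligands (0.2–0.0125 mM in PBS pH 7.2) were run in single-cycle kinetics at 25 °C with 10-min dissociation. KD was derived at a report point 4 s after injection stop.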

In assay [2] the target is Tlp2 (Campylobacter jejuni, UniProt Q0PBZ3). Put plainly: biochemical. In kind it is binding. The method, boiled down:
as §1

Assay [3] deals with Tlp3^LBD D196A (Campylobacter jejuni, UniProt Q0P864, D196A). Put plainly: biochemical.
The target of assay [4] is Tlp3^LBD W151A (Campylobacter jejuni, UniProt Q0P864, W151A). Put plainly: biochemical.
Assay [5] addresses Tlp3^LBD K149A (Campylobacter jejuni, UniProt Q0P864, K149A). The assay is described as follows: biochemical.
Assay [6] addresses Tlp3 (Campylobacter jejuni, UniProt Q0P864). Put plainly: Glycan/small molecule arrays with Tlp3. Conditions: yes/no binding. The method, boiled down: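 His-tagged periplasmic domains, 1 µg, precomplexed with anti-His plus Alexa555 secondary/tertiary antibodies, incubated on glycan and amino acid/salt arrays in PBS. Binding scored yes/no against background + 3× SD threshold, from replicate spots over three experiments.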

Assay [7] has as its target Tlp3^LBD D169A (Campylobacter jejuni, UniProt Q0P864, D169A). The assay is described as follows: biochemical.
Assay [8] has as its target Tlp3^LBD D170A (Campylobacter jejuni, UniProt Q0P864). The assay is described as follows: biochemical.
Where [9] appears, read: SPR KD, mean ± SD, NB = no binding, read-out: Tlp4 Affinity.
Setting [10] is: SPR KD, mean ± SD, NB = no binding, read-out: Tlp2 Affinity.

Chain of Tlp3^LBD W151A (Q0P864 41-290 W151A): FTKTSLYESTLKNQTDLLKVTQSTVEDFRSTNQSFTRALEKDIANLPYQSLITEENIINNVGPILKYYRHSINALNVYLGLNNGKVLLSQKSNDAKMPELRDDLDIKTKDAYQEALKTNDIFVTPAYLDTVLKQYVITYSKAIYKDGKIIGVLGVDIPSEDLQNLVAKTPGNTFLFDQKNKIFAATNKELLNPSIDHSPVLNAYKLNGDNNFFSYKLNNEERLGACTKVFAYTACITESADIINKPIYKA
Chain of Tlp4 (Q0PBP3 entry or part of it): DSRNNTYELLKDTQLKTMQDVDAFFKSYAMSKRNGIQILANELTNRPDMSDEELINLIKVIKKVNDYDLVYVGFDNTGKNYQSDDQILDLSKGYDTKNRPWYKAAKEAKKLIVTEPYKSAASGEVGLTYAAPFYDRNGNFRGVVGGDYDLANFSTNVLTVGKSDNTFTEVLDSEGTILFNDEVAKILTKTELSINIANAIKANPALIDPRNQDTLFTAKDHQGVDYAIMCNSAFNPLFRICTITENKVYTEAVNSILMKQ
Chain of Tlp2 (Q0PBZ3 entry or part of it): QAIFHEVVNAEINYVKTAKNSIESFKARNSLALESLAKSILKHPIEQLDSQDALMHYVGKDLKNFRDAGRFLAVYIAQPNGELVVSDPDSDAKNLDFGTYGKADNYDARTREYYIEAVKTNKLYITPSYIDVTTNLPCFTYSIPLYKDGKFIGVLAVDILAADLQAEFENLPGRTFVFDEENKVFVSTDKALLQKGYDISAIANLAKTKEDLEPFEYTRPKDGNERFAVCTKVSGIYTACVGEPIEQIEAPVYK
Chain of Tlp3 (Q0P864 entry or part of it): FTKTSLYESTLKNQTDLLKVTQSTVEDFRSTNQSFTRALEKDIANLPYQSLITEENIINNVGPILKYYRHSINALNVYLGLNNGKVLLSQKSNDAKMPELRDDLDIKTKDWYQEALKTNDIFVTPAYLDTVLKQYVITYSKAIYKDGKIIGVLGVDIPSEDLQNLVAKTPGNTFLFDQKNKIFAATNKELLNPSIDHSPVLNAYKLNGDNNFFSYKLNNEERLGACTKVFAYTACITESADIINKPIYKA
Chain of Tlp3^LBD D169A (Q0P864 41-290 D169A): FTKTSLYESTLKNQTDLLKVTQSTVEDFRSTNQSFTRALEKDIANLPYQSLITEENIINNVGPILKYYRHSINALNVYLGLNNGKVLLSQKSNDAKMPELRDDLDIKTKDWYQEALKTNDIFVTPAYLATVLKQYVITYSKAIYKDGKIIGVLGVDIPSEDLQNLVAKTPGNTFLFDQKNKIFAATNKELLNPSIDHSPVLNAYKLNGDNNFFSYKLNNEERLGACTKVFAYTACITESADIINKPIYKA
Chain of Tlp3^LBD D170A (Q0P864 41-290 T170A): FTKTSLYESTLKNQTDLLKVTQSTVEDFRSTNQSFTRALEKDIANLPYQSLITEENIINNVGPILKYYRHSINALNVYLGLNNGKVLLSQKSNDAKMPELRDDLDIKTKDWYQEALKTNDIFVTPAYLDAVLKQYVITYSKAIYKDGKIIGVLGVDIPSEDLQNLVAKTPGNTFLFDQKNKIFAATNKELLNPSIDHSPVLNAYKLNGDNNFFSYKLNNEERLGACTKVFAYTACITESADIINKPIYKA
Chain of Tlp3^LBD K149A (Q0P864 41-290 K149A): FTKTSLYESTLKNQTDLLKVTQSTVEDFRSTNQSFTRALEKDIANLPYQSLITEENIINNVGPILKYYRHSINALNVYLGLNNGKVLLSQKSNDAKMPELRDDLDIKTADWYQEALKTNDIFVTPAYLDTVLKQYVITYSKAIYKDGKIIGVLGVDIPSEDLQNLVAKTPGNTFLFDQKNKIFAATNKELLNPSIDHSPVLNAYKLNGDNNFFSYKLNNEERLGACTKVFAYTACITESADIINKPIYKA
Chain of Tlp3^LBD D196A (Q0P864 41-290 D196A): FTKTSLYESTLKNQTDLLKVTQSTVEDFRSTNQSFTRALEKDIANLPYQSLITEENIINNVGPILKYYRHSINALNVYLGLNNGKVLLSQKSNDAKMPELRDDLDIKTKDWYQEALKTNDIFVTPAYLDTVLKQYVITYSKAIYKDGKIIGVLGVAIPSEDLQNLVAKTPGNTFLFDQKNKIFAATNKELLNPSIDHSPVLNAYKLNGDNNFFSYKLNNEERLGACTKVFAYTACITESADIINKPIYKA

Consider `CC(=O)N[C@H]1[C@H]([C@H](O)[C@H](O)CO)OC(O)(C(=O)O)C[C@@H]1O` (stereo partly drawn) [Sialic acid], for which the Kd in assay [1] (setting [9]) stood at 0.8 ± 0.1 µM; in assay [2] (setting [10]), 1.7 ± 0.2 µM; in assay [3] it was 36.8 ± 3 µM; in assay [4] it was 17.3 ± 4.4 µM; in assay [5], 24 ± 6.6 µM; in assay [7] it was 25.2 ± 8.5 µM. In addition, the Kd in assay [8] turned out to be 16.6 ± 2 µM. Also, the “binding to Tlp3 on glycan/small molecule array” value in assay [6] was “interacted”.

Consider `NCCCC[C@H](N)C(=O)O` [Lysine], for which the Kd came out at 19.7 ± 3.9 µM in assay [1]; 18.6 ± 1.5 µM in assay [2]; 16.1 ± 9.1 µM in assay [3]; 27.3 ± 5.9 µM in assay [4]; 32.3 ± 5.3 µM in assay [5]; 29.2 ± 4.9 µM in assay [7]. In assay [8], the Kd turned out to be 14.5 ± 4.8 µM. The “binding to Tlp3 on glycan/small molecule array” value in assay [6] was “bind specifically”.

Regarding `C[C@H](O)[C@@H](O)[C@@H](O)[C@H](O)C=O` [Fucose], the Kd in assay [1] (setting [9]) is 16.2 ± 2.2 µM; in assay [2] (setting [10]) it was 15.5 ± 0.9 µM; in assay [3] it was 41.9 ± 13.2 µM; in assay [4], 66.9 ± 14.6 µM; in assay [5], 63.7 ± 16.8 µM; in assay [7], 50 ± 17.6 µM. Besides, the Kd in assay [8] was 46.6 ± 16.1 µM. The “binding to Tlp3 on glycan/small molecule array” value in assay [6] is “interacted”.
